Data: publication PMC3679788, “Factors affecting antiretroviral pharmacokinetics in HIV-infected women with virologic suppression on combination antiretroviral therapy: a cross-sectional study” (BMC Infectious Diseases, 2013)
Read-outs that look alike come from different tables or passages of the source. Blank lines part the entries; values can stand above or below the molecule they belong to.

Tests used:
[1] = Plasma Cmin and Cmax of PI/NNRTI in HIV-positive women on cART (LC-MS/MS); assay type: in vivo, human; settings: for Cmin Intra-patient CV median (IQR) / Cmax median ratio to historical population mean (IQR) / Cmax n (%) >1.5 Historical pop mean (percent of participants) / Cmin median ratio to historical population mean (IQR) / Cmin n (%) >1.5 historical pop Mean (percent of participants) / Cmax Inter-patient CV / Cmin Inter-patient CV / Cmin Study participants median (IQR) / Cmin Mean (SD) / Cmax at 2 h / Cmax / Cmax at 3 h / Cmax at 5 h: HIV-positive women; for Cmin Intra-patient CV median (IQR): 3 weekly visits; for Cmax Inter-patient CV: from individual median Cmax; for Cmin Inter-patient CV: from individual median Cmin; for Cmin Study participants median (IQR) / Cmin Mean (SD) / Cmax at 2 h / Cmax / Cmax at 3 h / Cmax at 5 h: plasma; for Cmin Study participants median (IQR) / Cmin Mean (SD): pre-dose, in ng/mL; for inter-patient variability (CV) for both Cmin and Cmax, in words / intra-patient variability for Cmax, in words / intra-patient variability for Cmin, in words: compared among the regimens; for inter-patient variability (CV) for both Cmin and Cmax, in words / intra-patient variability for Cmax, in words: nevirapine and lopinavir/ritonavir as BID; for intra-patient variability for Cmin, in words: nevirapine as BID; for Cmax at 2 h / Cmax / Cmax at 3 h / Cmax at 5 h: female, human, oral; for Cmax at 2 h: 2 hours post-dose; for Cmax at 3 h: 3 hours post-dose; for Cmax at 5 h: 600 mg, 5 hours post-dose
Method: Patients were asked to fast from midnight of the previous night. One hour before their scheduled morning dose the pre-dose blood collection was drawn (Cmin t) (alternative arrangements were made if the patient took their drugs in the evening). […] Concentrations of the PIs and the NNRTIs in plasma were measured simultaneously by sensitive and selective, validated high-performance liquid chromatography coupled to tandem mass-spectroscopy (LC-MS/MS). All samples were analyzed at the pharmacokinetic laboratory at the Ottawa Hospital Research Institute in Ottawa, Canada. The PK endpoints for each patient were determined by taking the median of the three weekly values for the Cmin and Cmax. The rationale for measuring drug levels at three separate time points was that there is potentially intra-individual variability in drug levels, especially for PIs. Using the median value for the endpoints eliminated outliers. The three drug level measurements allowed for the calculation of intra-patient variability. […] Next, for each subject the ratio of their median Cmin and Cmax for their main PI or NNRTI to this published drug level was calculated and used as the primary outcome as previously reported by Burger et al. […] Inter-patient variability of Cmin and Cmax for each antiretroviral drug was assessed by calculating the coefficient of variation (CV) using each individual’s median Cmin and Cmax. […] These values are summarized using median and IQR of the individual CVs. […] Finally, linear regression models were fit to assess correlates of the square root-transformed Cmin and Cmax ratios. […] The regression models included indicator variables to account for the different antiretroviral medications and each potential correlate was included separately in an adjusted model. Statistical analyses were performed using SAS Version 9.2 (SAS Institute, Cary, North Carolina, USA).

[2] = cited from earlier work
[3] = historical HIV population, atazanavir 400 mg QD; cited from earlier work
[4] = compared among the antiretrovirals
[5] = 400 mg, 400 mg QD, read-out: Cmax Study participants median (IQR)
[6] = 400 mg, 400 QD, read-out: Cmax Mean (SD)

Structure (SMILES): Cc1ccnc2c1NC(=O)c1cccnc1N2C1CC1 [Nevirapine, nevirapine]
Cmin Intra-patient CV median (IQR) ([1]; 200 BID): 13.9 (10.2-27.8) | Cmin Intra-patient CV median (IQR) ([1]; 400 QD): 21.3 (12.1-44.9) | Cmax median ratio to historical population mean (IQR) ([1]; 200 BID): 0.96 (0.84-1.37) | Cmax n (%) >1.5 Historical pop mean (percent of participants) ([1]; 200 BID): 2 (18.2%) | Cmin median ratio to historical population mean (IQR) ([1]; 200 BID): 1.41 (0.91-1.93) | Cmin n (%) >1.5 historical pop Mean (percent of participants) ([1]; 200 BID): 5 (45.5%) | Cmax median ratio to historical population mean (IQR) ([1]; 400 QD): 0.96 (0.72-1.40) | Cmax n (%) >1.5 Historical pop mean (percent of participants) ([1]; 400 QD): 1 (12.5%) | Cmin median ratio to historical population mean (IQR) ([1]; 400 QD): 2.08 (0.90-2.53) | Cmin n (%) >1.5 historical pop Mean (percent of participants) ([1]; 400 QD): 5 (62.5%) | Cmax median ratio to historical population mean (IQR) ([1]; all doses of the drug pooled): 0.96 (0.81-1.37) | Cmax n (%) >1.5 Historical pop mean (percent of participants) ([1]; all doses of the drug pooled): 3 (15.8%) | Cmin median ratio to historical population mean (IQR) ([1]; all doses of the drug pooled): 1.62 (0.91-2.32) | Cmin n (%) >1.5 historical pop Mean (percent of participants) ([1]; all doses of the drug pooled): 10 (52.6%) | Cmax Inter-patient CV ([1]; 200 BID): 37.8% | Cmax Inter-patient CV ([1]; 400 QD): 39.9% | Cmin Inter-patient CV ([1]; 200 BID): 45.4% | Cmin Inter-patient CV ([1]; 400 QD): 57.0% | Cmin Study participants median (IQR) ([1]; 200 mg BID): 5270 (3380–7190) | Cmin Study participants median (IQR) ([1]; 400 mg QD): 5995 (2590–7275) | Cmin Mean (SD) ([1]; 200 BID): 5693.6 (2586.8) | Cmin Mean (SD) ([1]; 400 QD): 5027.9 (2867.2) | Cmin ratio to published population mean, in words [1, 4]: highest ratios | inter-patient variability (CV) for both Cmin and Cmax, in words [1]: least inter-patient variability | intra-patient variability for Cmax, in words [1]: lowest intra-patient variability | intra-patient variability for Cmin, in words [1]: lowest intra-patient variability | Cmax at 2 h ([1]; 200 mg, 200 mg BID, read-out: Cmax Study participants median (IQR)): 5510 ng/mL | Cmax at 2 h ([1]; 200 mg, 200 BID, read-out: Cmax Mean (SD)): 6490 ng/mL | Cmax at 2 h [1, 5]: 6400 ng/mL | Cmax at 2 h [1, 6]: 6920 ng/mL | exposure in pregnant women ([2]; in vivo): lower | serum levels in women ([2]; in vivo): higher

Structure (SMILES): CC(C)(C)NC(=O)[C@@H]1C[C@@H]2CCCC[C@@H]2CN1C[C@@H](O)[C@H](Cc1ccccc1)NC(=O)[C@H](CC(N)=O)NC(=O)c1ccc2ccccc2n1 [saquinavir]
serum levels in women versus men ([2]; in vivo): significantly higher in women than in men

Cmin Intra-patient CV median (IQR) ([1]; 400 BID boosted with ritonavir): 23.8 (12.8-75.8) | Cmin Intra-patient CV median (IQR) ([1]; 800 QD boosted with ritonavir): 63.4 (35.2- 115) | Cmax n (%) >1.5 Historical pop mean (percent of participants) ([1]; 400 BID boosted with ritonavir): 0 (0.0%) | Cmin n (%) >1.5 historical pop Mean (percent of participants) ([1]; 400 BID boosted with ritonavir): 3 (18.8%) | Cmax n (%) >1.5 Historical pop mean (percent of participants) ([1]; 800 QD boosted with ritonavir): 0 (0.0%) | Cmin n (%) >1.5 historical pop Mean (percent of participants) ([1]; 800 QD boosted with ritonavir): 3 (75.0%) | Cmax n (%) >1.5 Historical pop mean (percent of participants) ([1]; all doses of the drug pooled): 0 (0.0%) | Cmin n (%) >1.5 historical pop Mean (percent of participants) ([1]; all doses of the drug pooled): 6 (30.0%) | Cmax Inter-patient CV ([1]; 400 BID boosted with ritonavir): 32.8% | Cmax Inter-patient CV ([1]; 800 QD boosted with ritonavir): 39.8% | Cmin Inter-patient CV ([1]; 400 BID boosted with ritonavir): 44.7% | Cmin Inter-patient CV ([1]; 800 QD boosted with ritonavir): 72.5% | Cmin Study participants median (IQR) ([1]; 400 mg BID with ritonavir 100 mg): 6660 (4360–7710) | Cmin Study participants median (IQR) ([1]; 800 mg QD with ritonavir 200 mg): 6445 (2452–8260) | Cmin Mean (SD) ([1]; 400 BID boosted with ritonavir): 6370.0 (2846.4) | Cmin Mean (SD) ([1]; 800 QD boosted with ritonavir): 5356.2 (3882.3) | inter-patient variability (CV) for both Cmin and Cmax, in words [1]: least inter-patient variability | intra-patient variability for Cmax, in words [1]: lowest intra-patient variability | Cmax ([1]; 800 mg QD with ritonavir 200 mg, read-out: Cmax Study participants median (IQR)): 11700 ng/mL | Cmax ([1]; 800 QD boosted with ritonavir, read-out: Cmax Mean (SD)): 11200 ng/mL
Structure (SMILES): Cc1cccc(C)c1OCC(=O)N[C@@H](Cc1ccccc1)[C@@H](O)C[C@H](Cc1ccccc1)NC(=O)[C@H](C(C)C)N1CCCNC1=O [Lopinavir boosted with ritonavir, lopinavir]
increase in AUC in women ([2]; in vivo): approximately 20%

Structure (SMILES): CC(C)CN(C[C@@H](O)[C@H](Cc1ccccc1)NC(=O)O[C@H]1CO[C@H]2OCC[C@H]21)S(=O)(=O)c1ccc(N)cc1 [darunavir]
increase in AUC in women ([2]; women versus men, product monographs): approximately 20%

Structure (SMILES): COC(=O)N[C@H](C(=O)N[C@@H](Cc1ccccc1)[C@@H](O)CN(Cc1ccc(-c2ccccn2)cc1)NC(=O)[C@@H](NC(=O)OC)C(C)(C)C)C(C)(C)C [Atazanavir boosted with ritonavir, atazanavir]
Cmin Intra-patient CV median (IQR) ([1]; 300 QD boosted with ritonavir): 26.3 (15.6-56.1) | Cmax median ratio to historical population mean (IQR) ([1]; 300 QD boosted with ritonavir): 0.66 (0.51-0.85) | Cmax n (%) >1.5 Historical pop mean (percent of participants) ([1]; 300 QD boosted with ritonavir): 0 (0.0%) | Cmin median ratio to historical population mean (IQR) ([1]; 300 QD boosted with ritonavir): 0.97 (0.77-1.42) | Cmin n (%) >1.5 historical pop Mean (percent of participants) ([1]; 300 QD boosted with ritonavir): 4 (22.2%) | Cmax Inter-patient CV ([1]; 300 QD boosted with ritonavir): 41.4% | Cmin Inter-patient CV ([1]; 300 QD boosted with ritonavir): 65.6% | Cmin Study participants median (IQR) ([1]; 300 mg QD with ritonavir 100 mg): 835 (663–1220) | Cmin Mean (SD) ([1]; 300 QD boosted with ritonavir): 1065.6 (699.2) | Cmax at 3 h ([1]; 300 mg QD with ritonavir 100 mg, read-out: Cmax Study participants median (IQR)): 3430 ng/mL | Cmax at 3 h ([1]; 300 QD boosted with ritonavir, read-out: Cmax Mean (SD)): 3530 ng/mL

Structure (SMILES): COC(=O)N[C@H](C(=O)N[C@@H](Cc1ccccc1)[C@@H](O)CN(Cc1ccc(-c2ccccn2)cc1)NC(=O)[C@@H](NC(=O)OC)C(C)(C)C)C(C)(C)C [Atazanavir, atazanavir]
Cmin Intra-patient CV median (IQR) ([1]; 400 QD): 57.4 (40.5-86.7) | Cmax median ratio to historical population mean (IQR) ([1]; 400 QD): 0.59 (0.31-0.94) | Cmax n (%) >1.5 Historical pop mean (percent of participants) ([1]; 400 QD): 0 (0.0%) | Cmin median ratio to historical population mean (IQR) ([1]; 400 QD): 0.78 (0.35-1.37) | Cmin n (%) >1.5 historical pop Mean (percent of participants) ([1]; 400 QD): 2 (22.2%) | Cmax median ratio to historical population mean (IQR) ([1]; all doses of the drug pooled): 0.65 (0.44-0.87) | Cmax n (%) >1.5 Historical pop mean (percent of participants) ([1]; all doses of the drug pooled): 0 (0.0%) | Cmin median ratio to historical population mean (IQR) ([1]; all doses of the drug pooled): 0.95 (0.53-1.42) | Cmin n (%) >1.5 historical pop Mean (percent of participants) ([1]; all doses of the drug pooled): 6 (22.2%) | Cmax Inter-patient CV ([1]; 400 QD): 57.3% | Cmin Inter-patient CV ([1]; 400 QD): 78.0% | Cmin Study participants median (IQR) ([1]; 400 mg QD): 214 (95–373) | Cmin Mean (SD) ([1]; 400 QD): 250.4 (195.4) | inter-patient variability, in words [1, 4]: greatest observed inter-patient variability | ratios of both Cmin and Cmax versus historical reference values, in words [1, 4]: lowest ratios | Cmax at 2 h [1, 5]: 1870 ng/mL | Cmax at 2 h [1, 6]: 2000 ng/mL | Inter- and intra-patient variability, in words ([1]; particularly when not boosted with ritonavir): high | Cmax Population mean [3]: 3150 ng/mL | increase in AUC in women ([2]; in vivo): approximately 20%

Structure (SMILES): O=C1Nc2ccc(Cl)cc2[C@@](C#CC2CC2)(C(F)(F)F)O1 [Efavirenz, efavirenz]
Cmin Intra-patient CV median (IQR) ([1]; 600 QD): 17.7 (10.5-25.1) | Cmax median ratio to historical population mean (IQR) ([1]; 600 QD): 0.79 (0.57-1.27) | Cmax n (%) >1.5 Historical pop mean (percent of participants) ([1]; 600 QD): 4 (25.0%) | Cmin median ratio to historical population mean (IQR) ([1]; 600 QD): 0.95 (0.67-1.95) | Cmin n (%) >1.5 historical pop Mean (percent of participants) ([1]; 600 QD): 6 (37.5%) | Cmax Inter-patient CV ([1]; 600 QD): 52.4% | Cmin Inter-patient CV ([1]; 600 QD): 55.0% | Cmin Study participants median (IQR) ([1]; 600 mg QD): 1680 (1180–3450) | Cmin Mean (SD) ([1]; 600 QD): 2196.9 (1209.2) | intra-patient variability for Cmax, in words [1]: lowest intra-patient variability | intra-patient variability for Cmin, in words [1]: lowest intra-patient variability | Cmax at 5 h ([1]; 600 mg QD, read-out: Cmax Study participants median (IQR)): 3240 ng/mL | Cmax at 5 h ([1]; 600 QD, read-out: Cmax Mean (SD)): 3930 ng/mL | serum levels in women ([2]; in vivo): higher
